The values below are quoted from earlier work in patent US8633181B2, “Treatment of cutaneous hemangioma” (Rutgers, The State University of New Jersey, priority 2009, dated 2014).

The subject of the series is severe hemangioma of infants. The settings on record: systemic propranolol.

Take `CC(C)NCC(O)COc1cccc2ccccc12` (stereo not shown) [propranolol]: the “time to significant shrinkage of the hemangioma after initiation” value is recorded as “about 24 hours”.
